# Patent US20110071124A1, “Compounds that Inhibit Production of sAPPB and AB and Uses Thereof” (The Trustees of Columbia University in the City of New York, priority 2008, published 2011)
# What was measured:
# [1] = system: SY5Y-BACEGFP-SEAPAPPwt cells; details: tagged-triazine hits, 10 μM
# Method: Of the 147 hits selected during the primary screen, 139 were retested in a 3-point dose-response (10, 2, 0.2 μM) confirmatory screen. BACE1 assay was performed as described, and cell viability was determined by Cell Titer AQeous One cell proliferation assay (Promega). Representative data from four compounds are shown. Data points represent mean±s.d. of four determinations.
# The primary screen for the nearly 3,000-compound tagged-triazine library was conducted in 96-well format by hand. Compounds were supplied in powder form in 96-well polypropylene plates. The compounds were first dissolved in DMSO to generate 10 mM stock plates, then stamped onto new polypropylene plates to make 1 mM working stock solution. For assay, 1 mM working stock solution was diluted 1:100 into cell culture media for a final concentration of 10 μM. […] Negative (DMSO) and positive (BACE inhibitor IV at 10 μM) controls were included on every screening plate in triplicate for quality control and calculation of Z′ factors.
# The 144 hits from the primary screen were rescreened in triplicate at 10 μM to confirm the activity and to assess cytotoxicity.
# Of the 147 hits from the primary screen, 139 were retested for 3-point dose-response at 10, 2, and 0.2 μM concentrations in quadruplicate. […] The compounds were simultaneously evaluated for cytotoxicity using the Cell Titer AQueous One cell proliferation assay (Promega). […]
# [2] = system: sAPPβ (BACE1 cleavage of SEAP-APPwt) in SY5Y-BACEGFP-SEAPAPPwt cells; experiment: cell-based BACE1 assay (sAPPβ modified ELISA); details: for IC50: 12 concentrations 0.1 nM to 30 μM, 96-well format (FIG. 8), read-out: cell-based IC50 (sAPPβ), 12-point dose-response
# Method: FIG. 1. An sAPPβ assay utilized to identify inhibitors of BACE1. The assay utilizes SY5Y cells stably overexpressing BACE-GFP and SEAP-APPwt. Cells are incubated with a candidate compound for 6 hours prior to harvesting media. BACE1-mediated cleavage of APP results in the release of sAPPβ into the media. α-secretase, a competing enzyme that is non-amyloidogenic, also cleaves APP to release […]. Using an sAPPβ-specific antibody (sβwt), SEAP-sAPPβ is specifically captured in a modified ELISA assay. Detection is achieved by addition of the fluorescent alkaline phosphatase substrate, 4-methylumbelliferyl phosphate (4-MUP).
# FIG. 13. […] Compounds were tested in SY5Y-BACEGFP-SEAPAPPwt cells using the cell-based BACE1 assay. Select compounds were also investigated for Aβ-lowering effect using a commercial Aβ ELISA kit (BioSource). All compounds were tested at 8 concentrations (30, 10, 3, 1, 0.3, 0.1, 0.03, and 0.01 μM), and data points were analyzed with Origin software and fitted using a logistic model for IC50 determination.
# As described in the Examples below, and depicted in FIG. 1, an sAPPβ ELISA assay may comprise cells, for example, SY5Y cells, transfected with a BACE1 reporter construct, such as a GFP-tagged BACE1 (BACE-GFP), and a wild type APP reporter construct, such as a secreted alkaline phosphatase (SEAP)-tagged wild type APP (SEAP-APPwt). BACE1 cleavage of the reporter-tagged APP (e.g. SEAP-APPwt) may result in secretion into the media of SEAP-tagged sAPPβ, which may be collected and specifically captured using an sAPPβ cleavage site-specific antibody (e.g. stβwt). Following washing, a substrate may be used, for example, the fluorescent alkaline phosphatase substrate 4-methylumbelliferyl phosphate (4-MUP), to detect the captured SEAP-sAPPβ.
# A cell-based modified ELISA assay for measuring sAPPβ, the secreted ectodomain of β-amyloid precursor protein (APP) following β-secretase (BACE1) cleavage, was used to identify a class of compounds that interfered with the first step of sAPPβ generation. This assay has been described in International Application PCT/US2007/015938 (Published as International Publication No. WO 08/008463), which is herein incorporated in its entirety for all purposes.
# The SY5Y-BACEGFP-SEAPAPPwt cell based assay was developed to discover novel small molecule modulators of BACE1 activity. SY5Y cells were stably transfected with GFP-tagged BACE1 (BACE-GFP) and secreted alkaline phosphatase (SEAP)-tagged wildtype APP (SEAP-APPwt). BACE1 cleavage of SEAP-APPwt results in secretion into the media of SEAP-tagged sAPPβ, which is collected and specifically captured using an sAPP0 cleavage site-specific antibody (sβwt). After washing, the fluorescent alkaline phosphatase substrate 4-methylumbelliferyl phosphate (4-MUP) is used to detect the captured SEAP-sAPPβ (FIG. 1).
# The 15 LDDN compounds selected based on their 3-point dose-response profile were tested at 12 concentrations (ranging from 0.1 nM to 30 μM) in the cell-based BACE1 assay. The assay was conducted in 96-well format to maximize the Z′ factor. Compounds were characterized in duplicate cell plates, each containing 12 doses of compound in triplicate. Cell viability was measured at 6 and 24 hours using Promega's Cell Titer-Glo kit according to the manufacturer's protocol. The dose-response curves for sAPPβ reduction were plotted using Origin software and fitted using a logistic model for IC50 determination.
# 27 structural analogs of LDN-0057228 were synthesized and tested using the cell-based BACE1 assay in SY5Y-BACEGFP-SEAPAPPwt cells (FIG. 13). 4 analogs, in addition to the parent compound, were also assessed for Aβ40 lowering activity using a commercial Aβ kit (BioSource). Because LDN-0057228 resembles CNS monoamine transporter inhibitors, this analog series was given the designation “CNS.” LDN-0057228 gave an unexpectedly low potency (IC50˜20 μM for both sAPPβ and Aβ40 reduction) compared to the ˜7 μM potency obtained using the same compound in FIG. 8.
# [3] = target: T1, purified recombinant β-secretase (BACE1) (Homo sapiens, UniProt P56817); experiment: BACE1 FRET enzymatic assay (Invitrogen); format: biochemical; details: for dose-dependent inhibition of β-secretase: 3 concentrations (0.1, 1, and 10 μM); for IC50: 12 doses, read-out: enzymatic IC50 (FRET-based BACE1 assay)
# T1 construct: purchased Invitrogen
# T1 sequence (P56817 46-501): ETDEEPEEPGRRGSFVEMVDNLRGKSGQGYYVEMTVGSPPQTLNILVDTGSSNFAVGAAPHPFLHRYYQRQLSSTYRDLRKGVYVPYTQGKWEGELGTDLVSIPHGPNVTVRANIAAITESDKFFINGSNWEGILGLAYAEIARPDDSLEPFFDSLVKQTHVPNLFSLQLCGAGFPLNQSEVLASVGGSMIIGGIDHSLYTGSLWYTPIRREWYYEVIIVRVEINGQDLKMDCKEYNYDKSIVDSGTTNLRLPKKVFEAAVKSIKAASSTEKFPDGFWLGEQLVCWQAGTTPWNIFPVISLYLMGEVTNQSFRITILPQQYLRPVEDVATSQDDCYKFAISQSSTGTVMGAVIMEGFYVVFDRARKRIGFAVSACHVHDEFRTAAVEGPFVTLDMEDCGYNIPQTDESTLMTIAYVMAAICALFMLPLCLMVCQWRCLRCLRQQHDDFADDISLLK
# Excerpt: FIG. 10. 4 compounds reduce BACE1 activity in an enzymatic assay. To further classify the small molecule hits, a FRET-based BACE1 enzymatic assay (Invitrogen) was used to identify potential direct BACE1 inhibitors.
# In other non-limiting embodiments, the effective amount of at least one compound of Formulas I-VII, and/or a compound depicted in FIG. 19, may be correlated with the compound's ability to inhibit the enzymatic activity of a BACE1 enzyme. The compound's BACE1 inhibitory effect may be assayed, for example, through use of a BACE1 FRET Assay kit (Invitrogen Corp., Carlsbad, Calif., U.S.A.), wherein the fluorescence resonance energy transfer (FRET)-based assay measures the cleavage by purified recombinant β-secretase of a peptide substrate corresponding to the BACE1 cleavage site of Swedish mutant APP. In such an assay, a greater reduction in fluorescence in the reaction mixture following incubation with a compound of the invention compared to a control cell line not contacted with the compound is correlative with the compound's therapeutic efficacy.
# Because the cell-based BACE1 assay has the potential to uncover direct as well as indirect inhibitors of β-secretase, a commercial BACE1 enzymatic assay was employed to classify the small molecule hits. The BACE1 FRET Assay kit was purchased from Invitrogen and used according to the manufacturer's protocol. This fluorescence resonance energy transfer (FRET)-based assay measures the cleavage by purified recombinant β-secretase of a peptide substrate corresponding to the BACE1 cleavage site of Swedish mutant APP. The 15 LDDN hits were first tested at 3 concentrations (0.1, 1, and 10 μM) to determine if there is a dose-dependent inhibition of β-secretase.
# [4] = fluorescent readout interference: BACE1 substrate standard (cleaved peptide) without BACE1 enzyme; details: highest of 12 concentrations
# Method: Because the enzymatic assay is performed with compound in the reaction mixture (in contrast to the cell-based BACE1 assay, where the compound is washed away after antibody-mediated specific capture of sAPPβ), it is conceivable that the compound itself may interfere with the fluorescent readout of the enzymatic BACE1 assay. To explore this possibility, BACE1 substrate standard (cleaved peptide, supplied in the assay kit) was incubated with 12 concentrations of LDN-0040630, LDN-0089308, LDN-0096529, and LDN-0091841 in the absence of BACE1 enzyme.
# [5] = 10 μM, triplicate rescreen of tagged-triazine hits
Compound,effect on cell viability [1],"increase in sAPPβ [2, 5]",dose-dependent inhibition of β-secretase [3],IC50 [3],IC50 [2],maximal inhibition of the fluorescence signal in the absence of BACE1 enzyme [4],"inhibition of sAPPβ [2, 5]"
NCCOCCOCCNC(=O)c1ccc(CNc2nc(NCC3CCCCC3)nc(N3CCCCC3)n2)cc1 [AM-D-E4],did not affect cell viability,36%,,,,,
Oc1cc(-c2ccccc2)nn1-c1nc2ccccc2[nH]1 [LDN-0089308],,,exhibited a dose-dependent effect,2.14 µM,3.05 µM,25%,
COc1ccccc1C(=O)Nc1nc2ccccc2n1CCOc1ccccc1 [LDN-0091841],,,exhibited a dose-dependent effect,5.15 µM,2.61 µM,25%,
NCCOCCOCCNc1nc(N2CCCC2)nc(N2CCN(c3ccc([N+](=O)[O-])cc3)CC2)n1 [TG-CD-D7],did not affect cell viability,,,,,,43%
